{"source": "BindingDB's records for patent US20230348421", "about": "(Geneora Pharma (Shijiazhuang) Co., 2023)", "target": "hERG (Potassium voltage-gated channel subfamily H member 2) (Homo sapiens, UniProt Q12809)", "sequence (Q12809 whole entry)": "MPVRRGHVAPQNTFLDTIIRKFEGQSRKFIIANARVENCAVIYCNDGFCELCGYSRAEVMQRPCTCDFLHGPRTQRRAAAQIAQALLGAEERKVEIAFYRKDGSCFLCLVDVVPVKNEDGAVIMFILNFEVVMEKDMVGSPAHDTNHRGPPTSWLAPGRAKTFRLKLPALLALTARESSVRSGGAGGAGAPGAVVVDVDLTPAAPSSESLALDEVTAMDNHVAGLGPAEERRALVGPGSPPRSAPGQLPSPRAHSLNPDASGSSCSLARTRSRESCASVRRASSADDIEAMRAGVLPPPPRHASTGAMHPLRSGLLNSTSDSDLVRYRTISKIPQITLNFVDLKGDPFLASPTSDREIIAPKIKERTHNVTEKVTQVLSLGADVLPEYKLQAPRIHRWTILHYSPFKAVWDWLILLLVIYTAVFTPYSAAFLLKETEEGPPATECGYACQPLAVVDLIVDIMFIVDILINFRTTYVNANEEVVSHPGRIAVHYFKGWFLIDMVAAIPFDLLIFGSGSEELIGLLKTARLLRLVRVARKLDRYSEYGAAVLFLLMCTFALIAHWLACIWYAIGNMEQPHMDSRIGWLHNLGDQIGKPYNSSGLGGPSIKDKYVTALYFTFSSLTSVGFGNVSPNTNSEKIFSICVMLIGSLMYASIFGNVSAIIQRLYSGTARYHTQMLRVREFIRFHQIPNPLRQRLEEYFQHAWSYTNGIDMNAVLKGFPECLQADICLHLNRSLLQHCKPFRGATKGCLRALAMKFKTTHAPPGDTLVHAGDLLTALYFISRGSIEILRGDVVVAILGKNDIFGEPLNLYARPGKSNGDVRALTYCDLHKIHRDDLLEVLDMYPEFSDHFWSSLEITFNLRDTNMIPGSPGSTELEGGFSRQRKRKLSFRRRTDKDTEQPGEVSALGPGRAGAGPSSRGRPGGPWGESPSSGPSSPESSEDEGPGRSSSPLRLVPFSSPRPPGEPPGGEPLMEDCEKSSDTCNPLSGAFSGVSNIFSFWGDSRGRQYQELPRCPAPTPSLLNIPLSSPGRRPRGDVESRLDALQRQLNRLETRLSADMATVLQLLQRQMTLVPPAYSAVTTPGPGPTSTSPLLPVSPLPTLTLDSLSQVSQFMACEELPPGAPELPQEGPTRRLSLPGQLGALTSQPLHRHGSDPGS", "assay": "Electrophysiological Assay", "details": "CHO cells stably expressing hERG potassium channels", "experimental": "CHO (Chinese Hamster Ovary) cells stably expressing hERG potassium channels were taken, and hERG potassium channel currents were recorded at room temperature by means of a whole-cell patch-clamp technique. A glass microelectrode was formed by pulling a glass electrode blank (BF150-86-10, Sutter) with a glass microelectrode puller. The tip resistance was about 2-5 MΩ after perfusion of a pippette solution. The glass microelectrode could be connected to a patch clamp amplifier by inserting the glass microelectrode into an amplifier probe. Clamping voltages and data recording were controlled and recorded by a computer with pClamp 10 software, with a sampling frequency of 10 kHz and a filtering frequency of 2 kHz. After the whole-cell recording was obtained, the cells were clamped at −80 mV, and the step voltage evoking hERG potassium current (I hERG) was changed from −80 mV to +20 mV by giving a 2 s depolarization voltage and then repolarized to −50 mV for 1 s, and returned to −80 mV. Such voltage stimulation was given every 10 s, and the administration process was started after it was determined that the hERG potassium currents were stable (1 min). The compound at each test concentration was given at least 1 min, and at least 2 cells (n≥2) were tested for each concentration."}
{"smiles": "CN1CCC(N(Cc2ccc(F)cn2)C(=O)NCc2ccc3c(c2)CC(C(F)(F)F)O3)CC1", "note": "(stereo unspecified) [US20230348421, Compound 89]", "values": [{"measurement": "IC50", "result": 2050, "unit": "nM"}]}
